Results taken from patent US11950594B2, “Methods and compositions for inhibiting formation of biofilms” (INSTITUTE OF MICROBIOLOGY, CHINESE ACADEMY OF SCIENCES, priority 2019, dated 2024).

What was measured:
pslA::lacZ = pslA::lacZ transcription fusion (β-galactosidase activity); assay type: cell-based, Pseudomonas aeruginosa; details: FIG. 5
Procedure: 1% inoculation amount of overnight cultured Pseudomonas aeruginosa (pslA::lacZ mutant strain) were respectively inoculated in Jensen media with and without coumarin-chalcone compounds C1-C12, and incubated at 37° C. until OD600 reached to 0.5. Bacteria from 1.5 ml culture aliquots were resuspended in 200 μl Z-buffer and frozen/thawed three times to lyses bacteria. Cell lysates were assayed for both β-galactosidase activities as well as for total proteins by BCA assay (Pierce, USA). All β-galactosidase activity units were normalized by total protein per ml aliquot.
The units of β-galactosidase activity may be determined according to Equation (1) as follows: Miller units=1000×(OD420−1.7×OD550)/(t×V×OD600) (1) where t denotes a time (unit: min), V denotes the volume (unit: mL).
About 500 bp of DNA fragments upstream of ATG start codon of pslA gene were cloned into a polyclonal site of mini-CTX lacZ vector (note that the selected promoter fragment cannot affect the frameshift mutation). A recombinant plasmid (e.g., pTH2) was transferred into Escherichia coli S17-1λ pir. Then activated PAO1 was inoculated into 5 mL of LBNS medium, and S17-1/pTH2 strain was inoculated into 5 mL of LB medium with tetracycline (Tet) ([…]), and both cultured overnight at 37° C. with 200 rpm. […]

[1] = tested on: Pseudomonas aeruginosa PAO1; experiment: Growth curve analysis (OD600); assay type: cell-based; details: 5 mM C9, LB, 37° C., 24 h
Procedure: Pseudomonas aeruginosa PAO1 (optical density OD600≈1.5) was cultured in LB liquid medium overnight, and 1% inoculation amount of the bacterial solution was inoculated into a fresh LB liquid medium. Two equal amounts of bacterial solution with and without 5 mM coumarin-chalcone compound C9 were cultured in a shaking incubator with 200 rpm at 37° C. for 24 h. OD value of the bacterial solution at 600 nm was measured every hour with a spectrophotometer to trace bacterial growth.

PAO1 strains = experiment: Bacterial motility assay, twitching plate; assay type: cell-based, Pseudomonas aeruginosa; details: 37° C., 24 hours
Procedure: PAO1 strains were inoculated into a LBNS agar plate and were cultured overnight at 37° C. Single colonies were respectively stab-inoculated to the bottom of twitching plates with and without the coumarin-chalcone compound C9, and cultured at 37° C. for 24 hours. The growth of bacteria at an interface between the agar and the plastic plate was a twitching movement. When 1% TTC was added to the medium, the area that bacteria have visited may turn red, and then the diameter of the red area on each twitching plate was measured.

[2] = tested on: Staphylococcus aureus biofilm; experiment: 96-well plate crystal violet biofilm detection; assay type: cell-based; details: FIG. 11
Procedure: 1% inoculation amount of the bacterial solution cultured overnight was inoculated into 100 μL Jensen liquid medium. Different equal amounts of bacteria solution with C1 to C12, respectively, or without any additional substance were cultured in a 96-well polyvinyl chloride (PVC) plate (costar) overnight at 30° C. without agitation.
The bacterial biomass adsorbed on the 96-well PVC plate was detected by a crystal violet method, and steps were described as below. (1) The non-attached bacteria were removed using a pipettor, then the wells were gently rinsed with normal saline for 3 times. (2) A volume of 120 μL 0.1% crystal violet solution was added to stain the firmly attached bacterial cells in each well, which then staying static at room temperature for 30 min. (3) The PVC plate was taken out, the crystal violet solution was removed with a pipettor, and the non-attached crystal violet solution was washed with normal saline. (4) The crystal violet attached onto the PVC plate was dissolved with 200 μL of 30% acetic acid solution. The OD value of the acetic acid solution in each well was measured at 560 nm with a spectrophotometer.
FIG. 11 is a schematic diagram illustrating an inhibiting effect of a coumarin-chalcone compound C9 on Staphylococcus aureus and Escherichia coli biofilms. […]

Pseudomonas aeruginosa [3] = experiment: Antibiotic susceptibility, filter paper method (inhibition area); assay type: cell-based; details: C9 5 mM in culture medium, versus control group
Procedure: In the experiment, the coumarin-chalcone compound C9 (5 mM) was added to a culture medium, and an inhibition area of the corresponding antibiotics was measured by a conventional filter paper method.

Pseudomonas aeruginosa [4] = experiment: MIC of antibiotics, Calgary biofilm device; assay type: cell-based; details: treated with C9 5 mM, versus untreated group
Procedure: MIC and MBEC values of a biofilm formed on a peg of a […] biofilm device (CGM and CBD) treated with the coumarin-chalcone compound C9 were measured according to methods (Innovotech) in MBECTM high throughput experimental operation manual. Biofilm treated with the coumarin-chalcone compound C9 (5 mM) was cultured in an antibiotic-containing medium in a 96-well plate for 24 h, and the MIC value was obtained by measuring the OD600 of planktonic cells of the above samples. To determine the MBEC value, the biofilm treated with the coumarin-chalcone compound C9 (5 mM) was cultured in an antibiotic-containing medium in a 96-well plate for 24 h, then the biofilm was ultrasonically crushed and subsequently incubated at 37° C. for another 24 hours. Biomass of newly formed biofilms was recorded to indicate the corresponding MBEC value.

COc1cccc(/C=C/C(=O)c2cc3ccccc3oc2=O)c1 [Compound C9]
production of Psl at the transcription level (pslA::lacZ) (pslA::lacZ): affected the production of Psl at the transcription level | effect on growth of Pseudomonas aeruginosa PAO1 (OD600) [1]: no significant effect | twitching motility mediated by type IV pili (PAO1 strains): no effect | reduction of Staphylococcus aureus biofilm [2]: 30% | susceptibility of Pseudomonas aeruginosa to fluoroquinolone antibiotics (CIP) (Pseudomonas aeruginosa [3]): significantly higher | MIC of a biofilm against ciprofloxacin (Pseudomonas aeruginosa [4]): significantly lower | MIC of a biofilm against tobramycin (Pseudomonas aeruginosa [4]): significantly lower
